Earlier results, collected in article PMC10239758 (European journal of medicinal chemistry, 2023).
Values after ≈ are worked out from the molar mass of the structure shown.

Tested on: Mtb strain H37Rv
Settings: cited from earlier work

Cc1cc(C)c2cc(C(=O)NC3CCCCCC3)[nH]c2c1 [Compound 6]
MIC H37Rv: 3.9 ng/mL (≈ 0.0137 µM)
